# The NIST ThermoML archive (doi:10.1016/j.fluid.2009.11.030)
# Numbers after ± are expanded uncertainties.
# Assay: excess molar enthalpy (molar enthalpy of mixing); xn = mol fraction of the nth substance listed
# Conditions: 101.3 kPa, Liquid, Isothermal microcalorimeter
smiles,measurement,setting,value
"CCOC(=O)CC(=O)OCC [diethyl 1,3-propanedioate] + CCOC(C)=O",excess molar enthalpy,"288.19 K, x1 = 0.0504",-0.000239 ± 0.000239 kcal/mol
same,excess molar enthalpy,"288.19 K, x1 = 0.1008",-0.000239 ± 0.000239 kcal/mol
same,excess molar enthalpy,"288.19 K, x1 = 0.148",-0.000478 ± 0.000239 kcal/mol
same,excess molar enthalpy,"288.19 K, x1 = 0.2007",-0.000478 ± 0.000239 kcal/mol
same,excess molar enthalpy,"288.19 K, x1 = 0.2496",-0.000478 ± 0.000239 kcal/mol
same,excess molar enthalpy,"288.19 K, x1 = 0.2974",-0.000478 ± 0.000239 kcal/mol
same,excess molar enthalpy,"288.19 K, x1 = 0.3475",-0.000478 ± 0.000239 kcal/mol
same,excess molar enthalpy,"288.19 K, x1 = 0.4",-0.000478 ± 0.000239 kcal/mol
same,excess molar enthalpy,"288.19 K, x1 = 0.447",-0.000478 ± 0.000239 kcal/mol
same,excess molar enthalpy,"288.19 K, x1 = 0.5003",-0.000478 ± 0.000239 kcal/mol
same,excess molar enthalpy,"288.19 K, x1 = 0.5474",-0.000478 ± 0.000239 kcal/mol
same,excess molar enthalpy,"288.19 K, x1 = 0.601",-0.000239 ± 0.000239 kcal/mol
same,excess molar enthalpy,"288.19 K, x1 = 0.6476",-0.000239 ± 0.000239 kcal/mol
same,excess molar enthalpy,"288.19 K, x1 = 0.7009",-0.000239 ± 0.000239 kcal/mol
same,excess molar enthalpy,"288.19 K, x1 = 0.7514",0 ± 0.000239 kcal/mol
same,excess molar enthalpy,"288.19 K, x1 = 0.7986",0 ± 0.000239 kcal/mol
same,excess molar enthalpy,"288.19 K, x1 = 0.8476",0 ± 0.000239 kcal/mol
same,excess molar enthalpy,"288.19 K, x1 = 0.8985",0 ± 0.000239 kcal/mol
same,excess molar enthalpy,"288.19 K, x1 = 0.9513",0.000239 ± 0.000239 kcal/mol
same,excess molar enthalpy,"298.15 K, x1 = 0.0504",-0.000478 ± 0.000239 kcal/mol
same,excess molar enthalpy,"298.15 K, x1 = 0.1008",-0.000717 ± 0.000239 kcal/mol
same,excess molar enthalpy,"298.15 K, x1 = 0.148",-0.000956 ± 0.000239 kcal/mol
same,excess molar enthalpy,"298.15 K, x1 = 0.2007",-0.0012 ± 0.000239 kcal/mol
same,excess molar enthalpy,"298.15 K, x1 = 0.2496",-0.00143 ± 0.000239 kcal/mol
same,excess molar enthalpy,"298.15 K, x1 = 0.2974",-0.00143 ± 0.000239 kcal/mol
same,excess molar enthalpy,"298.15 K, x1 = 0.3475",-0.00143 ± 0.000239 kcal/mol
same,excess molar enthalpy,"298.15 K, x1 = 0.4",-0.00143 ± 0.000239 kcal/mol
same,excess molar enthalpy,"298.15 K, x1 = 0.447",-0.00143 ± 0.000239 kcal/mol
same,excess molar enthalpy,"298.15 K, x1 = 0.5003",-0.0012 ± 0.000239 kcal/mol
same,excess molar enthalpy,"298.15 K, x1 = 0.5474",-0.0012 ± 0.000239 kcal/mol
same,excess molar enthalpy,"298.15 K, x1 = 0.601",-0.000956 ± 0.000239 kcal/mol
same,excess molar enthalpy,"298.15 K, x1 = 0.6476",-0.000956 ± 0.000239 kcal/mol
same,excess molar enthalpy,"298.15 K, x1 = 0.7009",-0.000717 ± 0.000239 kcal/mol
same,excess molar enthalpy,"298.15 K, x1 = 0.7514",-0.000717 ± 0.000239 kcal/mol
same,excess molar enthalpy,"298.15 K, x1 = 0.7986",-0.000478 ± 0.000239 kcal/mol
same,excess molar enthalpy,"298.15 K, x1 = 0.8476",-0.000239 ± 0.000239 kcal/mol
same,excess molar enthalpy,"298.15 K, x1 = 0.8985",0 ± 0.000239 kcal/mol
same,excess molar enthalpy,"298.15 K, x1 = 0.9513",0.000239 ± 0.000239 kcal/mol
same,excess molar enthalpy,"313.15 K, x1 = 0.0504",-0.000956 ± 0.000239 kcal/mol
same,excess molar enthalpy,"313.15 K, x1 = 0.1008",-0.00143 ± 0.000239 kcal/mol
same,excess molar enthalpy,"313.15 K, x1 = 0.148",-0.00191 ± 0.000239 kcal/mol
same,excess molar enthalpy,"313.15 K, x1 = 0.2007",-0.00239 ± 0.000239 kcal/mol
same,excess molar enthalpy,"313.15 K, x1 = 0.2496",-0.00263 ± 0.000239 kcal/mol
same,excess molar enthalpy,"313.15 K, x1 = 0.2974",-0.00287 ± 0.000239 kcal/mol
same,excess molar enthalpy,"313.15 K, x1 = 0.3475",-0.00287 ± 0.000239 kcal/mol
same,excess molar enthalpy,"313.15 K, x1 = 0.4",-0.00287 ± 0.000239 kcal/mol
same,excess molar enthalpy,"313.15 K, x1 = 0.447",-0.00287 ± 0.000239 kcal/mol
same,excess molar enthalpy,"313.15 K, x1 = 0.5003",-0.00287 ± 0.000239 kcal/mol
same,excess molar enthalpy,"313.15 K, x1 = 0.5474",-0.00263 ± 0.000239 kcal/mol
same,excess molar enthalpy,"313.15 K, x1 = 0.601",-0.00239 ± 0.000239 kcal/mol
same,excess molar enthalpy,"313.15 K, x1 = 0.6476",-0.00215 ± 0.000239 kcal/mol
same,excess molar enthalpy,"313.15 K, x1 = 0.7009",-0.00191 ± 0.000239 kcal/mol
same,excess molar enthalpy,"313.15 K, x1 = 0.7514",-0.00167 ± 0.000239 kcal/mol
same,excess molar enthalpy,"313.15 K, x1 = 0.7986",-0.00143 ± 0.000239 kcal/mol
same,excess molar enthalpy,"313.15 K, x1 = 0.8476",-0.000956 ± 0.000239 kcal/mol
same,excess molar enthalpy,"313.15 K, x1 = 0.8985",-0.000717 ± 0.000239 kcal/mol
same,excess molar enthalpy,"313.15 K, x1 = 0.9513",-0.000239 ± 0.000239 kcal/mol
same,excess molar enthalpy,"328.15 K, x1 = 0.0504",-0.00143 ± 0.000239 kcal/mol
same,excess molar enthalpy,"328.15 K, x1 = 0.1008",-0.00239 ± 0.000239 kcal/mol
same,excess molar enthalpy,"328.15 K, x1 = 0.148",-0.00335 ± 0.000239 kcal/mol
same,excess molar enthalpy,"328.15 K, x1 = 0.2007",-0.00406 ± 0.000239 kcal/mol
same,excess molar enthalpy,"328.15 K, x1 = 0.2496",-0.00454 ± 0.000239 kcal/mol
same,excess molar enthalpy,"328.15 K, x1 = 0.2974",-0.00478 ± 0.000239 kcal/mol
same,excess molar enthalpy,"328.15 K, x1 = 0.3475",-0.00502 ± 0.000239 kcal/mol
same,excess molar enthalpy,"328.15 K, x1 = 0.4",-0.00502 ± 0.000239 kcal/mol
same,excess molar enthalpy,"328.15 K, x1 = 0.447",-0.00502 ± 0.000239 kcal/mol
same,excess molar enthalpy,"328.15 K, x1 = 0.5003",-0.00478 ± 0.000239 kcal/mol
same,excess molar enthalpy,"328.15 K, x1 = 0.5474",-0.00454 ± 0.000239 kcal/mol
same,excess molar enthalpy,"328.15 K, x1 = 0.601",-0.0043 ± 0.000239 kcal/mol
same,excess molar enthalpy,"328.15 K, x1 = 0.6476",-0.00406 ± 0.000239 kcal/mol
same,excess molar enthalpy,"328.15 K, x1 = 0.7009",-0.00359 ± 0.000239 kcal/mol
same,excess molar enthalpy,"328.15 K, x1 = 0.7514",-0.00311 ± 0.000239 kcal/mol
same,excess molar enthalpy,"328.15 K, x1 = 0.7986",-0.00239 ± 0.000239 kcal/mol
same,excess molar enthalpy,"328.15 K, x1 = 0.8476",-0.00191 ± 0.000239 kcal/mol
same,excess molar enthalpy,"328.15 K, x1 = 0.8985",-0.00143 ± 0.000239 kcal/mol
same,excess molar enthalpy,"328.15 K, x1 = 0.9513",-0.000717 ± 0.000239 kcal/mol
same,excess molar enthalpy,"338.15 K, x1 = 0.0504",-0.00167 ± 0.000239 kcal/mol
same,excess molar enthalpy,"338.15 K, x1 = 0.1008",-0.00335 ± 0.000239 kcal/mol
same,excess molar enthalpy,"338.15 K, x1 = 0.148",-0.0043 ± 0.000239 kcal/mol
same,excess molar enthalpy,"338.15 K, x1 = 0.2007",-0.00526 ± 0.000239 kcal/mol
same,excess molar enthalpy,"338.15 K, x1 = 0.2496",-0.00598 ± 0.000239 kcal/mol
same,excess molar enthalpy,"338.15 K, x1 = 0.2974",-0.00621 ± 0.000239 kcal/mol
same,excess molar enthalpy,"338.15 K, x1 = 0.3475",-0.00669 ± 0.000239 kcal/mol
same,excess molar enthalpy,"338.15 K, x1 = 0.4",-0.00669 ± 0.000239 kcal/mol
same,excess molar enthalpy,"338.15 K, x1 = 0.447",-0.00669 ± 0.000239 kcal/mol
same,excess molar enthalpy,"338.15 K, x1 = 0.5003",-0.00645 ± 0.000239 kcal/mol
same,excess molar enthalpy,"338.15 K, x1 = 0.5474",-0.00621 ± 0.000239 kcal/mol
same,excess molar enthalpy,"338.15 K, x1 = 0.601",-0.00574 ± 0.000239 kcal/mol
same,excess molar enthalpy,"338.15 K, x1 = 0.6476",-0.00526 ± 0.000239 kcal/mol
same,excess molar enthalpy,"338.15 K, x1 = 0.7009",-0.00454 ± 0.000239 kcal/mol
same,excess molar enthalpy,"338.15 K, x1 = 0.7514",-0.00406 ± 0.000239 kcal/mol
same,excess molar enthalpy,"338.15 K, x1 = 0.7986",-0.00335 ± 0.000239 kcal/mol
same,excess molar enthalpy,"338.15 K, x1 = 0.8476",-0.00239 ± 0.000239 kcal/mol
same,excess molar enthalpy,"338.15 K, x1 = 0.8985",-0.00167 ± 0.000239 kcal/mol
same,excess molar enthalpy,"338.15 K, x1 = 0.9513",-0.000717 ± 0.000239 kcal/mol
same,excess molar enthalpy,"348.15 K, x1 = 0.0504",-0.00239 ± 0.000239 kcal/mol
same,excess molar enthalpy,"348.15 K, x1 = 0.1008",-0.00406 ± 0.000239 kcal/mol
same,excess molar enthalpy,"348.15 K, x1 = 0.148",-0.0055 ± 0.000239 kcal/mol
same,excess molar enthalpy,"348.15 K, x1 = 0.2007",-0.00645 ± 0.000239 kcal/mol
same,excess molar enthalpy,"348.15 K, x1 = 0.2496",-0.00741 ± 0.000239 kcal/mol
same,excess molar enthalpy,"348.15 K, x1 = 0.2974",-0.00789 ± 0.000239 kcal/mol
same,excess molar enthalpy,"348.15 K, x1 = 0.3475",-0.00813 ± 0.000239 kcal/mol
same,excess molar enthalpy,"348.15 K, x1 = 0.4",-0.00837 ± 0.000239 kcal/mol
same,excess molar enthalpy,"348.15 K, x1 = 0.447",-0.00813 ± 0.000239 kcal/mol
same,excess molar enthalpy,"348.15 K, x1 = 0.5003",-0.00789 ± 0.000239 kcal/mol
same,excess molar enthalpy,"348.15 K, x1 = 0.5474",-0.00765 ± 0.000239 kcal/mol
same,excess molar enthalpy,"348.15 K, x1 = 0.601",-0.00717 ± 0.000239 kcal/mol
same,excess molar enthalpy,"348.15 K, x1 = 0.6476",-0.00645 ± 0.000239 kcal/mol
same,excess molar enthalpy,"348.15 K, x1 = 0.7009",-0.00574 ± 0.000239 kcal/mol
same,excess molar enthalpy,"348.15 K, x1 = 0.7514",-0.00502 ± 0.000239 kcal/mol
same,excess molar enthalpy,"348.15 K, x1 = 0.7986",-0.00406 ± 0.000239 kcal/mol
same,excess molar enthalpy,"348.15 K, x1 = 0.8476",-0.00311 ± 0.000239 kcal/mol
same,excess molar enthalpy,"348.15 K, x1 = 0.8985",-0.00215 ± 0.000239 kcal/mol
same,excess molar enthalpy,"348.15 K, x1 = 0.9513",-0.000956 ± 0.000239 kcal/mol
